Target: T1, CkGE15A (Caldicellulosiruptor acetigenus, UniProt E4S6E9)
T1 construct: gene Calkr_2245; CE15 glucuronoyl esterase domain only, cut from the 191-kDa multidomain protein (CBM22-CBM22-GH10-CBM9-CBM9-CBM9-CE15-cadherin-SLH-SLH); modified pET-28a with TEV site, E. coli BL21, Ni IMAC
T1 sequence (E4S6E9 1270-1690 limits assumed): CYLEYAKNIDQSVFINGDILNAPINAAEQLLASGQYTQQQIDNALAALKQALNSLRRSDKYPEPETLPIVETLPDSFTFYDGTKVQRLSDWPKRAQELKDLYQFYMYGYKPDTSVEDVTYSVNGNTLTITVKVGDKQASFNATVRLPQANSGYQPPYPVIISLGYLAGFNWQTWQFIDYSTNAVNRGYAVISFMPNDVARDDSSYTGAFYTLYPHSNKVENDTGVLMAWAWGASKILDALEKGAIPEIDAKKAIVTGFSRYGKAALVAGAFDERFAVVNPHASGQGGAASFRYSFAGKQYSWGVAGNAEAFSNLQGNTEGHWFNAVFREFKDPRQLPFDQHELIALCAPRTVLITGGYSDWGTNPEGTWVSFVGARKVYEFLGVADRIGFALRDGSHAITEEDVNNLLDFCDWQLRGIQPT
Experiment: continuous coupled assay of uronic acid release (K-URONIC kit, NADH at […] nm)
Format: biochemical
Conditions: 22 °C; pH 7.5; printed as 'Cannot be saturated up to 40 mM'

| Km | Structure (SMILES) |
| --- | --- |
| > 40 mM | C=CCOC(=O)[C@H]1OC(O)[C@H](O)[C@@H](O)[C@@H]1O (stereo partly drawn) [AllGlcA, Allyl-D-glucuronoate] |
| > 40 mM | COC(=O)[C@H]1OC(O)[C@H](O)[C@@H](O)[C@@H]1O (stereo partly drawn) [MeGlcA, Methyl-D-glucuronoate] |

— publication PMC7151638, “Investigation of a thermostable multi-domain xylanase-glucuronoyl esterase enzyme from Caldicellulosiruptor kristjanssonii incorporating multiple carbohydrate-binding modules” (Biotechnology for Biofuels, 2020)
